Data reported in PubChem BioAssay AID192 (DTP/NCI, 2004).
Values joined by “and” are separate entries in the source; they are usually repeats but may differ in a detail not shown here. Equal entries are not always repeated. Inconclusive results and toxic doses are left out. Square brackets hold non-standard residues; d marks the D form. Peptide text beside a SMILES is read from it. * marks the point of attachment. Cbz = O=C(OCc1ccccc1)*; Nva = CCC[CH](N)C(=O)O

System: BDF1 mice, B16 melanoma ip, median survival T/C
Experiment: NCI In Vivo Anticancer Drug Screen. Data for tumor model B16 Melanoma (intraperitoneal) in B6D2F1 (BDF1) mice
Conditions: endpoint: median survival time, higher = longer survival
In short: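 Vehicle-treated animals serve as the reference (C); treated animals (T) are scored for survival or tumor size after tumor transplantation.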

[1] = dose: 6.25 mg/kg/injection, schedule: Q01DX009 (ip), vehicle: saline
[2] = dose: 12.5 mg/kg/injection, schedule: Q01DX009 (ip), vehicle: saline
[3] = dose: 25.0 mg/kg/injection, schedule: Q01DX009 (ip), vehicle: saline
[4] = dose: 50.0 mg/kg/injection, schedule: Q01DX009 (ip), vehicle: saline
[5] = dose: 25.0 mg/kg/injection, schedule: Q01DX009 (ip), vehicle: saline with Tween-80
[6] = dose: 200.0 mg/kg/injection, schedule: Q01DX009 (ip), vehicle: saline with Tween-80
[7] = dose: 1.56 mg/kg/injection, schedule: Q01DX009 (ip), vehicle: saline with Tween-80
[8] = dose: 50.0 mg/kg/injection, schedule: Q01DX009 (ip), vehicle: saline with Tween-80
[9] = dose: 100.0 mg/kg/injection, schedule: Q01DX009 (ip), vehicle: saline with Tween-80
[10] = dose: 12.5 mg/kg/injection, schedule: Q01DX009 (ip), vehicle: Klucel (hydroxypropylcellulose) (HPC)
[11] = dose: 50.0 mg/kg/injection, schedule: Q01DX009 (ip), vehicle: Klucel (hydroxypropylcellulose) (HPC)
[12] = dose: 100.0 mg/kg/injection, schedule: Q01DX009 (ip), vehicle: Klucel (hydroxypropylcellulose) (HPC)
[13] = dose: 400.0 mg/kg/injection, schedule: Q01DX009 (ip), vehicle: saline with Tween-80
[14] = dose: 25.0 mg/kg/injection, schedule: Q01DX009 (ip), vehicle: Klucel (hydroxypropylcellulose) (HPC)
[15] = dose: 75.0 mg/kg/injection, schedule: Q01DX009 (ip), vehicle: Klucel (hydroxypropylcellulose) (HPC)
[16] = dose: 150.0 mg/kg/injection, schedule: Q01DX009 (ip), vehicle: Klucel (hydroxypropylcellulose) (HPC)
[17] = dose: 100.0 mg/kg/injection, schedule: Q04DX003 (ip), vehicle: Klucel (hydroxypropylcellulose) (HPC)
[18] = dose: 200.0 mg/kg/injection, schedule: Q04DX003 (ip), vehicle: Klucel (hydroxypropylcellulose) (HPC)
[19] = dose: 100.0 mg/kg/injection, schedule: Q01DX009 (ip), vehicle: saline
[20] = dose: 50.0 mg/kg/injection, schedule: Q04DX003 (ip), vehicle: Klucel (hydroxypropylcellulose) (HPC)

## NCCN1CCc2ccccc2C1
dose: 6.25 mg/kg/injection, schedule: Q04DX003 (ip), vehicle: saline
  T/C: 113 % of control
dose: 12.5 mg/kg/injection, schedule: Q04DX003 (ip), vehicle: saline
  T/C: 110 % of control
dose: 16.5 mg/kg/injection, schedule: Q04DX003 (ip), vehicle: saline
  T/C: 112 % of control
dose: 25.0 mg/kg/injection, schedule: Q04DX003 (ip), vehicle: saline
  T/C: 112 % of control and 115 % of control
dose: 37.5 mg/kg/injection, schedule: Q04DX003 (ip), vehicle: saline
  T/C: 110 % of control

## C=C1CC2(OC1=O)C(=O)N(C)c1ccc(I)cc12 (centres undefined)
[1]
  T/C: 100 % of control and 104 % of control
[2]
  T/C: 101 % of control and 112 % of control
[3]
  T/C: 95 % of control and 104 % of control
[4]
  T/C: 110 % of control

## O=C1C(=O)c2ccccc2C(O)=C1CCCc1ccc(C2CCCCC2)cc1
[5]
  T/C: 104 % of control
[6]
  T/C: 88 % of control

## CC(C)(C)c1cc([N+](=O)[O-])cc([N+](=O)[O-])c1O
[7]
  T/C: 99 % of control
dose: 3.13 mg/kg/injection, schedule: Q01DX009 (ip), vehicle: saline with Tween-80
  T/C: 96 % of control
dose: 6.25 mg/kg/injection, schedule: Q01DX009 (ip), vehicle: saline with Tween-80
  T/C: 93 % of control
dose: 12.5 mg/kg/injection, schedule: Q01DX009 (ip), vehicle: saline with Tween-80
  T/C: 89 % of control

## C=C1CCC2(C)C(O)CC3(C)C(CCC4C5(C)CCC(OC(C)=O)C(C)(C)C5CCC43C)C2C1C (centres undefined)
dose: 1.0 mg/kg/injection, schedule: Q01DX009 (ip), vehicle: other
  T/C: 107 % of control
dose: 2.0 mg/kg/injection, schedule: Q01DX009 (ip), vehicle: other
  T/C: 101 % of control
dose: 4.0 mg/kg/injection, schedule: Q01DX009 (ip), vehicle: other
  T/C: 102 % of control

## CC[C@H](C)[C@H](NC(=O)OC(C)(C)C)C(=O)ON1C(=O)CCC1=O
[8]
  T/C: 92 % of control
[9]
  T/C: 97 % of control
[6]
  T/C: 90 % of control

## CCCCCCOP(=O)(CCCCCC)OCCCCCC
[10]
  T/C: 91 % of control
[11]
  T/C: 94 % of control
[12]
  T/C: 97 % of control

## CC(=O)Oc1cccc(C)c1
[6]
  T/C: 106 % of control

## CC12NC(=O)NC1(C)NC(=O)N2 (centres undefined)
dose: 100.0 mg/kg/injection, schedule: Q04DX003 (ip), vehicle: saline with Tween-80
  T/C: 100 % of control

## Oc1ccc2ccccc2c1N=Nc1ccc(Cl)cc1
[13]
  T/C: 90 % of control

## CCOC(=O)/C(C(C)=O)=C(/O)c1ccc(OC(F)(F)C(F)Cl)cc1OC(F)(F)C(F)Cl.CCOC(=O)/C(C(C)=O)=C(/O)c1ccc(OC(F)(F)C(F)Cl)cc1OC(F)(F)C(F)Cl.[Cu] (centres undefined)
[10]
  T/C: 89 % of control
[14]
  T/C: 88 % of control

## Cc1c(Cl)cccc1NC(=O)c1ccc(Cl)cc1
[15]
  T/C: 94 % of control
[16]
  T/C: 90 % of control

## CCCCn1c(=S)[nH]c2ccccc2c1=O
[12]
  T/C: 98 % of control
dose: 200.0 mg/kg/injection, schedule: Q01DX009 (ip), vehicle: Klucel (hydroxypropylcellulose) (HPC)
  T/C: 96 % of control
dose: 400.0 mg/kg/injection, schedule: Q01DX009 (ip), vehicle: Klucel (hydroxypropylcellulose) (HPC)
  T/C: 98 % of control

## CC1=CC(=O)[C@@H](O)[C@]2(C)[C@H]3[C@@]4(O)OC[C@]35[C@H]([C@@H](C)[C@H]4O)[C@@H](O)C(=O)O[C@@H]5C[C@@H]12
dose: 0.75 mg/kg/injection, schedule: Q01DX009 (ip), vehicle: saline
  T/C: 107 % of control
dose: 1.5 mg/kg/injection, schedule: Q01DX009 (ip), vehicle: saline
  T/C: 109 % of control
dose: 3.0 mg/kg/injection, schedule: Q01DX009 (ip), vehicle: saline
  T/C: 117 % of control
dose: 6.0 mg/kg/injection, schedule: Q01DX009 (ip), vehicle: saline
  T/C: 108 % of control

## CCC(C)C1NC(=O)C(NC(=O)c2c3nc4c(C(=O)NC5C(=O)NC(C(C)CC)C(=O)N6CCCC6C(=O)N(C)CC(=O)N(C)C(C(C)C)C(=O)OC5C)cc(N)c(C)c4oc-3c(C)c(=O)c2N)C(C)OC(=O)C(C(C)C)N(C)C(=O)CN(C)C(=O)C2CCCN2C1=O (centres undefined)
dose: 12.5 micrograms/kg/injection, schedule: Q01DX009 (ip), vehicle: water
  T/C: 110 % of control
dose: 25.0 micrograms/kg/injection, schedule: Q01DX009 (ip), vehicle: water
  T/C: 104 % of control
dose: 118.0 micrograms/kg/injection, schedule: Q01DX009 (ip), vehicle: water
  T/C: 161 % of control
dose: 400.0 micrograms/kg/injection, schedule: Q01DX009 (ip), vehicle: water
  T/C: 159 % of control

## NC(=S)Nc1cccc(Cl)c1
[10]
  T/C: 106 % of control
[14]
  T/C: 102 % of control
[11]
  T/C: 100 % of control

## CCc1cccc(CC)c1N1C(=O)C=CC1=O
dose: 0.2 mg/kg/injection, schedule: Q01DX009 (ip), vehicle: saline with Tween-80
  T/C: 97 % of control
dose: 0.39 mg/kg/injection, schedule: Q01DX009 (ip), vehicle: saline with Tween-80
  T/C: 99 % of control
dose: 0.78 mg/kg/injection, schedule: Q01DX009 (ip), vehicle: saline with Tween-80
  T/C: 92 % of control
[7]
  T/C: 86 % of control and 90 % of control

## CCCCCCCCCCCCCCCCC/C=C1\CC(=O)OC1=O
[5]
  T/C: 97 % of control and 99 % of control
[8]
  T/C: 91 % of control and 105 % of control
[9]
  T/C: 92 % of control

## CC(O)C(O)C=O (centres undefined)
dose: 248.0 mg/kg/injection, schedule: Q01DX009 (ip), vehicle: saline
  T/C: 108 % of control
dose: 346.0 mg/kg/injection, schedule: Q01DX009 (ip), vehicle: saline
  T/C: 97 % of control
dose: 576.0 mg/kg/injection, schedule: Q01DX009 (ip), vehicle: saline
  T/C: 104 % of control

## Cc1ccc([N+](=O)[O-])c(OC(=O)Nc2ccccc2Cl)c1
[17]
  T/C: 100 % of control
[18]
  T/C: 93 % of control
dose: 400.0 mg/kg/injection, schedule: Q04DX003 (ip), vehicle: Klucel (hydroxypropylcellulose) (HPC)
  T/C: 93 % of control

## C[n+]1ccc2cc(N)c3c4ccccc4sc3c2c1
dose: 3.12 mg/kg/injection, schedule: Q01DX009 (ip), vehicle: Klucel (hydroxypropylcellulose) (HPC)
  T/C: 103 % of control
dose: 6.25 mg/kg/injection, schedule: Q01DX009 (ip), vehicle: Klucel (hydroxypropylcellulose) (HPC)
  T/C: 101 % of control
[1]
  T/C: 113 % of control
[10]
  T/C: 95 % of control
[2]
  T/C: 119 % of control
[3]
  T/C: 91 % of control

## Cc1ccc(Cl)cc1NC(=O)Nc1ccc(Cl)c(Cl)c1
[15]
  T/C: 97 % of control
[16]
  T/C: 92 % of control

## Cc1cc(Cl)ccc1NC(=O)CCl
[9]
  T/C: 100 % of control
[6]
  T/C: 95 % of control

## C[Si](C)(O[Si](C)(C)c1ccccc1)c1ccccc1
[3]
  T/C: 123 % of control
[19]
  T/C: 114 % of control

## CCCCCCCCCCCCSC(=O)CCC(=O)O
[20]
  T/C: 108 % of control
[17]
  T/C: 108 % of control
[18]
  T/C: 102 % of control

## NC(N)=Nc1nc2ccccc2s1
dose: 25.0 mg/kg/injection, schedule: Q04DX003 (ip), vehicle: Klucel (hydroxypropylcellulose) (HPC)
  T/C: 105 % of control
[20]
  T/C: 97 % of control
[17]
  T/C: 97 % of control

## CC1(C)SC2C(NC(=O)C(N)c3ccccc3)C(=O)N2C1C(=O)O (centres undefined)
[9]
  T/C: 100 % of control
[6]
  T/C: 95 % of control
[13]
  T/C: 90 % of control

## CCC(CC)(C[NH-])C[NH-].[Cl][Pt+2][Cl]
dose: 1.2 mg/kg/injection, schedule: Q01DX009 (ip), vehicle: carboxymethylcellulose (CMC)
  T/C: 164 % of control
dose: 2.4 mg/kg/injection, schedule: Q01DX009 (ip), vehicle: carboxymethylcellulose (CMC)
  T/C: 164 % of control

## CCCCCCC(O)CCCC (centres undefined)
dose: 100.0 mg/kg/injection, schedule: Q01DX009 (ip), vehicle: other
  T/C: 103 % of control
dose: 200.0 mg/kg/injection, schedule: Q01DX009 (ip), vehicle: other
  T/C: 90 % of control

## CCCC(NC(=O)C(Cc1ccccc1)NC(=O)OCc1ccccc1)C(=O)O (stereo not drawn) (Cbz-Phe-[Nva]-OH; configuration not given here)
[8]
  T/C: 95 % of control
[9]
  T/C: 92 % of control

## O=C(CCl)N1c2ccccc2Oc2cc3ccccc3cc21
[4]
  T/C: 113 % of control
[19]
  T/C: 106 % of control
dose: 200.0 mg/kg/injection, schedule: Q01DX009 (ip), vehicle: saline
  T/C: 104 % of control
dose: 400.0 mg/kg/injection, schedule: Q01DX009 (ip), vehicle: saline
  T/C: 109 % of control
